# Measured values reported in patent US6380203B1, “Angiogenesis inhibitors” (Merck & Co., Inc., priority 1998, dated 2002).
structure (smiles),measurement,value
"c1cc(-c2cnn3cc(-c4ccc(OCCN5CCOCC5)cc4)cnc23)cs1 [Example 4, 3-(3-thienyl)-6-(4-(2-(4-morpholinyl)ethoxy)phenyl) pyrazolo(1,5-A)pyrimidine]",melting point,149 to 151 °C
